Test results: patent publication US10125121B2, “FYN kinase inhibitors” (ROTTAPHARM BIOTECH S.R.L., priority 2015, dated 2018)

Legend:
[1] = target: active FYN (human recombinant, 62.7 kDa) (Homo sapiens, UniProt P06241); assay: In vitro kinase assay (Z′-LYTE FRET); format: biochemical; settings: read-out: IC50(nM) FYN INHIBITION
Description: Assays to determine the kinase inhibitory activity of compounds were performed using an automatic liquid handling device (Microlab STAR Hamilton) and Z′-LYTE™ Kinase Assay Platform, a Fluorescence Resonance Energy Transfer (FRET)-based assay platform compatible with high-throughput screening (HTS) applications. The assay employs a fluorescence-based, coupled-enzyme format and utilizes the differential sensitivity of phosphorylated and non-phosphorylated peptides to proteolytic cleavage.
All reagents were diluted in reaction buffer and the kinase reaction was carried out in a total volume of 10 μl, for 60 minutes at 25° C. The 0% Phosphorylation (i.e. no ATP) and 100% Phosphorylation (i.e. synthetically phosphorylated peptide supplied) Assay Controls, included in each plate, allowed to calculate the percent phosphorylation achieved in the specific reaction well. The 0% Inhibition and 0% Phosphorylation (i.e. 100% Inhibition) Controls define the dynamic range in the screen. At the end of incubation, a secondary reaction (the Development Reaction) started by adding 5 μl of Development Reagent, containing a site-specific protease that recognizes and cleaves non-phosphorylated peptides, and was interrupted after 60 minutes with 5 μl/sample of Stop Reagent.
The compounds were tested in a range of concentrations 10^−6-10^−9 M.
Results are expressed as percentage of inhibition and the IC50 values were calculated by non-linear curve fitting using GraphPad™ Prism software.

[2] = tested on: NF-kB activation in JB6 CI 41-5a (P+) cells; assay: Gene reporter (GR) assay, NF-kB luciferase after TNFα stimulation; format: cell-based, murine; settings: Mus musculus; 1 h pre-treatment, 2 ng/ml TNFα for 4 h; read-out: IC50(nM) GR Inhibition
Source text: To determine if the compounds of the invention were active also in a cellular model, a gene reporter assay was established in a cell line (JB6 CI 41-5a (P+)) know to activate Fyn kinase via an inflammatory stimuli (TNFα). GR assay measures the activation of the nuclear transcription factor NF-kB, situated down-stream the Fyn activation pathway. Products active in this analysis has to penetrate in the cell and inhibit the activation pathway of NF-kB.
The murine epithelial cell line JB6 CI 41-5a (P+) (ATCC® Cat. # CRL-2010) was stably transfected with the pGL4.32[luc2P/NFkB-RE/Hygro] vector (Promega). Clonal selection was achieved by limiting dilution in MEM (+Earle's BSS+1.5 g/l sodium bicarbonate+0.1 mM NEAA)+GlutaMAX™-I, +1 mM sodium pyruvate, +5% FBS+80 μg/ml Hygromycin B. The clones were tested for their response to TNFα stimulus. The obtained transfected cells (JB6(P+) NFkB-RE-luc2P T3-C10) contained a firefly luciferase gene (luc2P) under the control of minimal TATA promoter with multiple Nuclear Factor-kB response elements (NFkB-REs). These NFkB-REs are DNA binding sequences for the NF-kB transcription factor.
JB6(P+) NFkB-RE-luc2P T3-C10 cells were used for the analysis of NF-kB activity modulation, after TNFα stimulation, by Fyn-inhibitors (Hwang et al.; Biochem. Pharmacol. 2009, 77 (7):1213-22).
6000 cells/well were plated in a 96× well plate. After 24 h new medium without antibiotics was given. After further 24 h the cells were pre-treated with the different compounds for 1 h and then stimulated with 2 ng/ml TNFα for 4 h. In each experiments two positive standards were always used, and each tested condition was analyzed in quadruplicate.
The luciferase analysis was performed with ONE-Glo™+ToxLuciferase Reporter and Cell Viability Assay kit (Promega). This assay combined luciferase assay chemistry with a cell viability marker to better understand reporter gene expression in the context of cell health. The assay uses a two-step process. The first part of the assay was a non-lytic fluorescence assay (CellTiter-Fluor™ Cell Viability Assay) that measured the relative number of live cells in a culture population, as it measures a conserved and constitutive protease activity within live cells. The live-cell protease activity was restricted to intact viable cells and was measured using a fluorogenic, cell-permeant peptide substrate (glycyl-phenylalanyl-aminofluorocoumarin; GF-AFC). The generated fluorescent signal, proportional to the number of living cells, was measured with EnVision microplate reader (PerkinElmer) using an excitation wavelength of 400 nm and emission wavelength of 500 nm.
The second part of the assay uses the ONE-Glo™ Luciferase Assay System to quantify firefly luciferase reporter gene expression. The ONE-Glo™ Assay contained a fluoro-luciferin substrate, more tolerant to sample components than standard luciferase assay reagents. Luminescence was measured with EnVision microplate reader (PerkinElmer).
Compounds of Formula (I) were tested for their capacity to penetrate into the cell and inhibit the activation pathway of NF-kB.

[3] = tested on: CFA induced hyperalgesia; assay: CFA-induced inflammatory pain in rats (Randall-Selitto paw withdrawal threshold); format: in vivo; settings: 3; rat, 24 h after administration
Description: Male Wistar rats were injected into the right hind footpad with 300 μg of Mycobacterium tuberculosis in 100 μL of liquid paraffin (Complete Freund's Adjuvant; CFA). Seventy-two hours later, compounds 2 and 26 were administered subcutaneously and 24 h after the administration, the response to noxious mechanical stimulation was assessed by measuring paw withdrawal threshold (PWT) with an analgesimeter of the Randall-Selitto type. Animals were gently restrained, and steadily increasing pressure was applied to the dorsal surface of both the ipsi-lateral (CFA-treated) and the contra-lateral paw via a dome-shaped plastic tip.
100% protection means that the animal treated with the compound and CFA can tolerate the same stimulus (weight) as the control animal which has not received CFA treatment.

Chain of active FYN (human recombinant, 62.7 kDa) (P06241 whole entry): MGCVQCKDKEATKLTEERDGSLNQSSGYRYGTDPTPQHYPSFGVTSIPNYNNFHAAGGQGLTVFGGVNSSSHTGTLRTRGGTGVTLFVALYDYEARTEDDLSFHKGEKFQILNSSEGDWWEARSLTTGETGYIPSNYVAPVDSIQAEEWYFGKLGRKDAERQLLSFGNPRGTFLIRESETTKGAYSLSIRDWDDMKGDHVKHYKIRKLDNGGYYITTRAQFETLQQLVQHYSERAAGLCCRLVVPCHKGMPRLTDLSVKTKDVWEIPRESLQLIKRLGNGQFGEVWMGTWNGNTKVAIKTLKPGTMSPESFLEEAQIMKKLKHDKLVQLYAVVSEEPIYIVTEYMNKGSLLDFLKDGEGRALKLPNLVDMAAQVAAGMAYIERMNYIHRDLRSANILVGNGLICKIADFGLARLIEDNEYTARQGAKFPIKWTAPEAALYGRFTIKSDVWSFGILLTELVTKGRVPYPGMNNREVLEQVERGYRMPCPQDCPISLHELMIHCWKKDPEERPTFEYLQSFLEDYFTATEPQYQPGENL

IC50 [1] | IC50 [2] | SMILES | % protective effect vs. CFA induced hyperalgesia [3]
42 nM | 854 nM | Cc1nc(C(=O)Nc2ccc(CN3CCN(c4nccc(Nc5cc(C6CC6)[nH]n5)n4)CC3)cc2)c(C(F)(F)F)o1 [Compound 21, N-(4-((4-(4-((5-cyclopropyl-1H-pyrazol-3-yl)amino)pyrimidin-2-yl)piperazin-1-yl)methyl)phenyl)-2-methyl-5-(trifluoromethyl)oxazole-4-carboxamide] | –
4 nM | > 2000 nM | O=C(Nc1cnc(CN2CCN(c3nccc(Nc4cc(C5CC5)[nH]n4)n3)CC2)cn1)c1ccccc1C(F)(F)F [Compound 41, N-(5-((4-(4-((5-cyclopropyl-1H-pyrazol-3-yl)amino)pyrimidin-2-yl)piperazin-1-yl)methyl)pyrazin-2-yl)-2-(trifluoromethyl)benzamide] | –
39 nM | 766 nM | O=C(Nc1ccc(CN2CCN(c3nccc(Nc4cc(C5CC5)[nH]n4)n3)CC2)cc1)c1ccccc1OC(F)(F)F [Compound 8, N-(4-((4-(4-((5-cyclopropyl-1H-pyrazol-3-yl)amino)pyrimidin-2-yl)piperazin-1-yl)methyl)phenyl)-2-(trifluoromethoxy)benzamide] | –
27 nM | 1050 nM | O=C(Nc1ccc(CN2CCN(c3nccc(Nc4cc(C5CC5)[nH]n4)n3)CC2)nc1)c1ccccc1C(F)(F)F [Compound 43, N-(6-((4-(4-((5-cyclopropyl-1H-pyrazol-3-yl)amino)pyrimidin-2-yl)piperazin-1-yl)methyl)pyridin-3-yl)-2-(trifluoromethyl)benzamide] | –
8 nM | > 2000 nM | O=C(Nc1ccc(CN2CCN(c3nccc(Nc4cc(C5CC5)[nH]n4)n3)CC2)cc1)c1nccnc1C(F)(F)F [Compound 36, N-(4-((4-(4-((5-cyclopropyl-1H-pyrazol-3-yl)amino)pyrimidin-2-yl)piperazin-1-yl)methyl)phenyl)-3-(trifluoromethyl)-pyrazine-2-carboxamide] | –
9 nM | 247 nM | O=C(Nc1ccc(CN2CCN(c3nccc(Nc4cc(C5CC5)[nH]n4)n3)CC2)cc1)c1ncccc1C(F)(F)F [Compound 26, N-(4-((4-(4-((5-cyclopropyl-1H-pyrazol-3-yl)amino)pyrimidin-2-yl)piperazin-1-yl)methyl)phenyl)-3-(trifluoromethyl)-picolinamide] | 100%
103 nM | 1930 nM | Cc1nocc1C(=O)Nc1ccc(CN2CCN(c3nccc(Nc4cc(C5CC5)[nH]n4)n3)CC2)cc1 [Compound 23, N-(4-((4-(4-((5-cyclopropyl-1H-pyrazol-3-yl)amino)pyrimidin-2-yl)piperazin-1-yl)methyl)phenyl)-3-methylisoxazole-4-carboxamide] | –
16 nM | 603 nM | O=C(Nc1ccc(CN2CCN(c3nccc(Nc4cc(C5CC5)[nH]n4)n3)CC2)cc1)c1ccc(F)cc1C(F)(F)F [Compound 14, N-(4-((4-(4-((5-cyclopropyl-1H-pyrazol-3-yl)amino)pyrimidin-2-yl)piperazin-1-yl)methyl)phenyl)-4-fluoro-2-(trifluoromethyl)benzamide] | –
30 nM | > 2000 nM | Cc1cc(CN2CCN(c3nccc(Nc4cc(C5CC5)[nH]n4)n3)CC2)ccc1NC(=O)c1ccccc1F [Compound 17, N-(4-((4-(4-((5-cyclopropyl-1H-pyrazol-3-yl)amino)pyrimidin-2-yl)piperazin-1-yl)methyl)-2-methylphenyl)-2-fluorobenzamide] | –
8 nM | 973 nM | O=C(Nc1ccc(CN2CCN(c3nccc(Nc4cc(C5CC5)[nH]n4)n3)CC2)cc1)c1cnccc1C(F)(F)F [Compound 29, N-(4-((4-(4-((5-cyclopropyl-1H-pyrazol-3-yl)amino)pyrimidin-2-yl)piperazin-1-yl)methyl)phenyl)-4-(trifluoromethyl)-nicotinamide] | –
27 nM | 1340 nM | O=C(Nc1ccc(CN2CCN(c3nccc(Nc4cc(C5CC5)[nH]n4)n3)CC2)cc1)c1cccnc1C(F)(F)F [Compound 27, N-(4-((4-(4-((5-cyclopropyl-1H-pyrazol-3-yl)amino)pyrimidin-2-yl)piperazin-1-yl)methyl)phenyl)-2-(trifluoromethyl)-nicotinamide] | –
23 nM | 493 nM | O=C(Nc1ccc(CN2CCN(c3nccc(Nc4cc(C5CC5)[nH]n4)n3)CC2)cc1)c1c(F)cccc1C(F)(F)F [Compound 13, N-(4-((4-(4-((5-cyclopropyl-1H-pyrazol-3-yl)amino)pyrimidin-2-yl)piperazin-1-yl)methyl)phenyl)-2-fluoro-6-(trifluoromethyl)benzamide] | –
17 nM | 1000 nM | O=C(Nc1ccc(CN2CCN(c3nccc(Nc4cc(C5CC5)[nH]n4)n3)CC2)cc1)c1ccncc1C(F)(F)F [Compound 32, N-(4-((4-(4-((5-cyclopropyl-1H-pyrazol-3-yl)amino)pyrimidin-2-yl)piperazin-1-yl)methyl)phenyl)-3-(trifluoromethyl)-isonicotinamide] | –
94 nM | 1370 nM | CCc1cc(CN2CCN(c3nc(C)cc(Nc4cc(C5CC5)[nH]n4)n3)CC2)ccc1NC(=O)c1ccccc1F [Compound 18, N-(4-((4-(4-((5-cyclopropyl-1H-pyrazol-3-yl)amino)-6-methylpyrimidin-2-yl)piperazin-1-yl)methyl)-2-ethylphenyl)-2-fluorobenzamide] | –
29 nM | 430 nM | O=C(Nc1ccc(CN2CCN(c3nccc(Nc4cc(C5CC5)[nH]n4)n3)CC2)cc1)c1cccc(F)c1C(F)(F)F [Compound 12, N-(4-((4-(4-((5-cyclopropyl-1H-pyrazol-3-yl)amino)pyrimidin-2-yl)piperazin-1-yl)methyl)phenyl)-3-fluoro-2-(trifluoromethyl)benzamide] | –
17 nM | 788 nM | Cc1ccccc1C(=O)Nc1ccc(CN2CCN(c3nccc(Nc4cc(C5CC5)[nH]n4)n3)CC2)cc1 [Compound 4, N-(4-((4-(4-((5-cyclopropyl-1H-pyrazol-3-yl)amino)pyrimidin-2-yl)piperazin-1-yl)methyl)phenyl)-2-methylbenzamide] | –
